Literature values, collected in PubChem BioAssay AID1259409 (Chemical Carcinogenesis Research Information System (CCRIS), 2018).
“And” between values parts separate entries of the source, which are not always exact repeats. Equal values may be shown once.

Tested on: rodent chemically induced tumor inhibition, incidence and multiplicity
Assay: CCRIS tumor inhibitor studies
Conditions: Promoter: NONE USED

Compound: CCOC(=O)C(C)(C)Br
- tumour outcome (control, treated, inhibition, significance) (Carcinogen: N-METHYL-N'-NITRO-N-NITROSOGUANIDINE, 70-25-7, Dose [Inhibitor]: 0, 42 MG/KG TWICE WITHIN 24 HR THEN 105 MG/KG 1/2 WK FOR DURATION OF STUDY BEGINNING 1 WK POST LAST CARCINOGEN DOSE (STU, Route [Inhibitor]: INTRAPERITONEAL, Species: RAT, Strain/Sex: SHR/MALE, Target Tissue: Type of Lesion: STOMACH: ADENOCARCINOMA, Dose [Carcinogen]: 25 UG/ML IN DRINKING WATER FOR 25 WK): 10/19 (53%), 2/17 (12%), 77%, p<0.05
- tumour outcome (control, treated, inhibition, significance) (Carcinogen: N-METHYL-N'-NITRO-N-NITROSOGUANIDINE, 70-25-7, Dose [Inhibitor]: 0, 42 MG/KG TWICE WITHIN 24 HR THEN 105 MG/KG 1/2 WK FOR DURATION OF STUDY BEGINNING 1 WK POST LAST CARCINOGEN DOSE (STU, Route [Inhibitor]: INTRAPERITONEAL, Species: RAT, Strain/Sex: WISTAR/MALE, Target Tissue: Type of Lesion: STOMACH: ADENOCARCINOMA, Dose [Carcinogen]: 25 UG/ML IN DRINKING WATER FOR 25 WK): 2/18 (11%), 0/17 (0%), 100%, not significant

Compound: CC(C)(C)c1ccccc1O
- tumour outcome (control, treated, inhibition, significance) (Carcinogen: BENZO[A]PYRENE, 50-32-8, Dose [Inhibitor]: 0.03 MMOL/G OF DIET DAILY STARTING 7 D BEFORE AND CONTINUING THROUGH 3 D AFTER CARCINOGEN TREATMENT FOLLOWED BY OBSERVAT, Route [Inhibitor]: ORAL, Species: MOUSE, Strain/Sex: ICR/FEMALE, Target Tissue: Type of Lesion: FORESTOMACH: NEOPLASM, Dose [Carcinogen]: 1 MG IN 0.2 ML CORN OIL 2/WK FOR 4 WK): 94%, 85%, 10%, not significant and 100%, 95%, 5%, not significant

Compound: Oc1ccccc1
- tumour outcome (control, treated, inhibition, significance) (Carcinogen: BENZO[A]PYRENE, 50-32-8, Dose [Inhibitor]: 0.03 MMOL/G OF DIET STARTING 8 D BEFORE AND CONTINUING THROUGH 3 D AFTER LAST CARCINOGEN TREATMENT (STUDY DURATION: 148, Route [Inhibitor]: ORAL, Species: MOUSE, Strain/Sex: ICR/FEMALE, Target Tissue: Type of Lesion: FORESTOMACH: NEOPLASM, Dose [Carcinogen]: 1 MG IN 0.2 ML CORN OIL 2/WK FOR 4 WK): 100%, 100%, 0%, not significant
- tumour outcome (control, treated, inhibition, significance) (Carcinogen: BENZO[A]PYRENE, 50-32-8, Dose [Inhibitor]: 3 MG IN 0.1 ML ACETONE 3/WK ADMINISTERED SIMULTANEOUSLY WITH CARCINOGEN FOR DU RATION OF STUDY (STUDY DURATION: 368 D), Route [Inhibitor]: DERMAL, Species: MOUSE, Strain/Sex: ICR/FEMALE, Target Tissue: Type of Lesion: SKIN: PAPILLOMA, Dose [Carcinogen]: 5 UG IN 0.1 ML ACETONE 3/WK FOR DURATION OF STUDY): 14/50 (28%), 7/50 (14%), 50%, not calculated
- tumour outcome (control, treated, inhibition, significance) (Carcinogen: BENZO[A]PYRENE, 50-32-8, Dose [Inhibitor]: 3 MG IN 0.1 ML ACETONE 3/WK ADMINISTERED SIMULTANEOUSLY WITH CARCINOGEN FOR DURATION OF STUDY (STUDY DURATION: 368 D), Route [Inhibitor]: DERMAL, Species: MOUSE, Strain/Sex: ICR/FEMALE, Target Tissue: Type of Lesion: SKIN: SQUAMOUS CARCINOMA, Dose [Carcinogen]: 5 UG IN 0.1 ML ACETONE 3/WK FOR DURATION OF STUDY): 10/50 (20%), 3/50 (6%), 70%, not calculated
